Among the test systems are 786-0 renal; LOX IMVI melanoma; BT-549 breast; SK-MEL-28 melanoma; COLO 205 colon; M14 melanoma; NCI-H226 lung; HL-60(TB) leukemia; UO-31 renal; HS 578T breast; NCI/ADR-RES ovarian; MCF7 breast; IGROV1 ovarian; KM12 colon; SF-539 CNS; CAKI-1 renal; EKVX NSCLC; OVCAR-8 ovarian; SF-295 CNS.
Common to all, as to test: inhibition of tumour cell growth, NCI panel, 48 h

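All cell lines were grown in 96-well plates and treated with compound for 48 hours. TGI is the concentration that stops growth completely.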

As for `Nc1nc(Nc2ccc(Cl)cc2)sc1C(=O)c1cc2ccccc2oc1=O`, the TGI in the assay on 786-0 renal, in the assay on LOX IMVI melanoma, in the assay on BT-549 breast, in the assay with SK-MEL-28 melanoma, in the assay with COLO 205 colon and in the assay on M14 melanoma was over 100 µM each time. For the same molecule, the TGI in the assay with NCI-H226 lung, with HL-60(TB) leukemia, in the assay with UO-31 renal, in the assay on HS 578T breast, in the assay on NCI/ADR-RES ovarian and in the assay with MCF7 breast was over 100 µM each time. The TGI in the assay with IGROV1 ovarian, with KM12 colon and in the assay with SF-539 CNS was over 100 µM in each case.
`CC(=O)OC1CC(OC2C(O)CC(OC3C(O)CC(OC4CCC5(C)C(CCC6C5CC(O)C5(C)C(C7=CC(=O)OC7)CCC65O)C4)OC3C)OC2C)OC(C)C1O` (stereo unspecified) (tested in a mixture with another compound): the TGI came to 0.13 µM in the assay on 786-0 renal; 0.0944 µM in the assay on LOX IMVI melanoma; 0.201 µM in the assay on BT-549 breast; 0.0818 µM in the assay with CAKI-1 renal; 0.168 µM in the assay with COLO 205 colon; 0.0381 µM with EKVX NSCLC. In addition, the TGI in the assay on M14 melanoma is 0.231 µM; with NCI-H226 lung it was 0.176 µM; in the assay with UO-31 renal, 0.169 µM; in the assay with HS 578T breast it was 0.435 µM; with OVCAR-8 ovarian, 0.129 µM; in the assay on NCI/ADR-RES ovarian, 0.0732 µM. Besides, the TGI in the assay with MCF7 breast amounted to 0.216 µM; in the assay with IGROV1 ovarian, 0.176 µM; in the assay with KM12 colon, 0.116 µM; with SF-295 CNS, 0.133 µM; in the assay on SF-539 CNS, 0.113 µM.
Take `Cc1cc2c3c(ccc4ncc(c43)CN2c2ccc(NS(C)(=O)=O)cc2)[nH]1`: the TGI with 786-0 renal is 23.5 µM; in the assay with LOX IMVI melanoma, over 100 µM; with BT-549 breast, over 100 µM; with SK-MEL-28 melanoma, over 100 µM; in the assay with CAKI-1 renal, 64.5 µM; in the assay with COLO 205 colon, over 100 µM. Moreover, the TGI was over 100 µM in the assay on EKVX NSCLC; over 100 µM in the assay on M14 melanoma; 78.3 µM in the assay on NCI-H226 lung; over 100 µM in the assay with HL-60(TB) leukemia; 78.4 µM in the assay with UO-31 renal; over 100 µM in the assay with HS 578T breast. Also, the TGI in the assay on OVCAR-8 ovarian, in the assay with NCI/ADR-RES ovarian, with MCF7 breast, in the assay with IGROV1 ovarian, with KM12 colon and in the assay with SF-295 CNS was over 100 µM in each case.
Turning to `CC(=O)Oc1ccc(-c2cc3ccccc3oc2=O)cc1OC(C)=O`, the TGI with 786-0 renal, in the assay on LOX IMVI melanoma, in the assay on BT-549 breast, in the assay on SK-MEL-28 melanoma, in the assay on COLO 205 colon and in the assay on EKVX NSCLC was over 100 µM in each case. Moreover, the TGI is over 100 µM with M14 melanoma; over 100 µM in the assay on NCI-H226 lung; 7.48 µM in the assay with HL-60(TB) leukemia; over 100 µM with UO-31 renal; over 100 µM in the assay on HS 578T breast; over 100 µM in the assay on OVCAR-8 ovarian. Also, the TGI was over 100 µM with NCI/ADR-RES ovarian; over 100 µM with MCF7 breast; 33.2 µM in the assay on KM12 colon; 67.9 µM with SF-295 CNS; over 100 µM with SF-539 CNS.
As to `C=CCSc1nn(CC=C)cc2ncnc1-2`, the TGI in the assay with 786-0 renal, in the assay with BT-549 breast, in the assay with SK-MEL-28 melanoma, in the assay with CAKI-1 renal, in the assay on COLO 205 colon and in the assay on EKVX NSCLC was over 100 µM each time. The TGI in the assay on M14 melanoma, in the assay on NCI-H226 lung, in the assay with HL-60(TB) leukemia, in the assay with UO-31 renal, with HS 578T breast and in the assay with OVCAR-8 ovarian was over 100 µM each time. Besides, the TGI in the assay with NCI/ADR-RES ovarian, in the assay on MCF7 breast, in the assay with IGROV1 ovarian, in the assay with KM12 colon, with SF-295 CNS and with SF-539 CNS was over 100 µM throughout.
On to `O=C1c2c(Br)sc(Br)c2[C@H]2NC(=S)O[C@@H]12`, for which the TGI with 786-0 renal is 28.5 µM; in the assay on LOX IMVI melanoma, 30.5 µM; with BT-549 breast it was 30.3 µM; with SK-MEL-28 melanoma, 29.6 µM; in the assay with CAKI-1 renal, 26.7 µM; in the assay on COLO 205 colon, 27.8 µM. The TGI in the assay on EKVX NSCLC is 39.5 µM; in the assay on M14 melanoma, 30.5 µM; with NCI-H226 lung it was 42.9 µM; in the assay with UO-31 renal it was 29.8 µM; in the assay with HS 578T breast, 60 µM; in the assay on OVCAR-8 ovarian it was 24.5 µM. In addition, the TGI in the assay with NCI/ADR-RES ovarian stood at 45.8 µM; in the assay on MCF7 breast, 31.8 µM; with IGROV1 ovarian it was 32 µM; in the assay with KM12 colon, 38.1 µM; in the assay with SF-295 CNS it was 45.5 µM; with SF-539 CNS, 33.6 µM.
In the case of `CC(O[Si](C)(C)C(C)(C)C)[C@H](NC(=O)OCC(Cl)(Cl)Cl)C(=O)O` (stereo partly specified), the TGI in the assay on 786-0 renal, in the assay on BT-549 breast, in the assay on SK-MEL-28 melanoma, in the assay with COLO 205 colon, in the assay on EKVX NSCLC and with NCI-H226 lung was over 100 µM throughout. Also, the TGI in the assay on HL-60(TB) leukemia, in the assay on UO-31 renal, with HS 578T breast, in the assay on OVCAR-8 ovarian, in the assay on NCI/ADR-RES ovarian and with MCF7 breast was over 100 µM each time. In addition, the TGI with IGROV1 ovarian, in the assay on KM12 colon, with SF-295 CNS and in the assay on SF-539 CNS was over 100 µM throughout.
On to `CC(C)C1OCC(CO)CO1` (stereo unspecified), for which the TGI in the assay with 786-0 renal, with LOX IMVI melanoma, in the assay with BT-549 breast, in the assay with SK-MEL-28 melanoma, with CAKI-1 renal and in the assay on COLO 205 colon was over 100 µM in each case. Besides, the TGI in the assay with EKVX NSCLC, in the assay with M14 melanoma, in the assay on NCI-H226 lung, with HL-60(TB) leukemia, with UO-31 renal and in the assay with HS 578T breast was over 100 µM in each case. The TGI in the assay with OVCAR-8 ovarian, in the assay with NCI/ADR-RES ovarian, in the assay with MCF7 breast, in the assay with KM12 colon, in the assay on SF-295 CNS and with SF-539 CNS was over 100 µM each time.
As for `OC[C@H]1CC(c2nn[nH]n2)[C@H](O)[C@@H]1O` (stereo partly specified), the TGI in the assay with 786-0 renal, in the assay with LOX IMVI melanoma, with BT-549 breast, in the assay on SK-MEL-28 melanoma, in the assay with COLO 205 colon and with M14 melanoma was over 100 µM throughout. Also, the TGI with NCI-H226 lung, in the assay with HL-60(TB) leukemia, in the assay with UO-31 renal, in the assay with HS 578T breast, with OVCAR-8 ovarian and with NCI/ADR-RES ovarian was over 100 µM each time. Further, the TGI in the assay on MCF7 breast, with IGROV1 ovarian, with KM12 colon, in the assay on SF-295 CNS and in the assay on SF-539 CNS was over 100 µM in each case.
As for `Cc1ccc(C2SC(N)=Nc3c2c(C)nn3C(=O)c2ccncc2)cc1` (stereo unspecified), the TGI in the assay on 786-0 renal, in the assay on LOX IMVI melanoma, in the assay on BT-549 breast, in the assay with SK-MEL-28 melanoma, in the assay with CAKI-1 renal and in the assay on COLO 205 colon was over 10 µM each time. In addition, the TGI with M14 melanoma, in the assay on NCI-H226 lung, in the assay on HL-60(TB) leukemia, in the assay on HS 578T breast, in the assay with OVCAR-8 ovarian and with NCI/ADR-RES ovarian was over 10 µM throughout. For the same molecule, the TGI in the assay on MCF7 breast, in the assay on IGROV1 ovarian, in the assay on KM12 colon, in the assay with SF-295 CNS and in the assay on SF-539 CNS was over 10 µM in each case.
Regarding `COc1cc(/C=C2\NC(=O)N(/C=C3\C(=O)Oc4ccccc4C3=O)C2=O)ccc1O`, the TGI in the assay with 786-0 renal, in the assay on LOX IMVI melanoma, in the assay on BT-549 breast, in the assay with CAKI-1 renal, in the assay on COLO 205 colon and in the assay on EKVX NSCLC was over 100 µM each time. The TGI with M14 melanoma was over 100 µM; with NCI-H226 lung, over 100 µM; in the assay with HL-60(TB) leukemia it was 62 µM; in the assay with UO-31 renal it was over 100 µM; in the assay on HS 578T breast, over 100 µM; in the assay with OVCAR-8 ovarian, over 100 µM. Also, the TGI with NCI/ADR-RES ovarian, with MCF7 breast, in the assay with IGROV1 ovarian, with KM12 colon, in the assay with SF-295 CNS and in the assay with SF-539 CNS was over 100 µM each time.
In the case of `CC[n+]1[b-](C(C)(C)C)n(/N=C(\C)C(C)(C)C)[b-](C(C)(C)C)[n+]1CC`, the TGI in the assay with 786-0 renal, in the assay on LOX IMVI melanoma, in the assay on BT-549 breast, in the assay with SK-MEL-28 melanoma, in the assay on CAKI-1 renal and in the assay on EKVX NSCLC was over 100 µM in each case. Besides, the TGI in the assay with M14 melanoma, with NCI-H226 lung, in the assay with UO-31 renal, in the assay with HS 578T breast, with OVCAR-8 ovarian and in the assay with NCI/ADR-RES ovarian was over 100 µM throughout. The TGI in the assay with MCF7 breast, in the assay with IGROV1 ovarian, in the assay on KM12 colon, with SF-295 CNS and in the assay with SF-539 CNS was over 100 µM in each case.

The record behind these values is PubChem BioAssay (NCI).
